In patent publication US20200087340A1, “LIF/LIFR ANTAGONIST IN ONCOLOGY AND NONMALIGNANT DISEASES” (Evestra, Inc., priority 2018, published 2020):

Experiments:
T47D cells = experiment: Soft agar colony formation assay; format: cell-based, human; settings: 100 nM concentration
Method: Colonies of cancer cells formed in soft agar in the presence and absence of the testing compounds is a standard assay to interpret in-vitro tumorigenic potential in the basal layer. Agar was prepared by mixing 1% DNA grade agar melted and cooled to 40° C. with an equal volume of (2×) Dulbecco's Modified Eagle's Medium (DMEM) to obtain 0.5% agar that was dispersed in a 6-well plate and allowed to solidify. A total of 0.6% agar was prepared in RPMI medium and mixed together with T47D cells (0.5×10^6 cells/mL) and immediately plated on the basal layer in the presence or absence of testing compounds. The cultures were incubated at 37° C. in a CO2 incubator for 2 weeks, and colonies were stained with 0.005% crystal violet and observed under a light microscope.

[1] = test system: human umbilical vein endothelial cells (HUVEC); experiment: Matrigel in vitro HUVECs tube formation assay (angiogenesis); format: cell-based; settings: 1 μM concentration, all measured time points
Method: Matrigel in vitro HUVECs tube formation assay: The tube formation assay was performed using 12-well plate coated with 100 μL Matrigel basement membrane matrix (BD Bioscience) per well and polymerized at 37° C. for 30 min. Human umbilical vascular endothelial cells (HUVECs) suspended in M199 medium containing 2% FBS were plated on the Matrigel at a density of 2×10^5 cells/well. […] After 8 h, the Matrigel-induced morphological changes were photographed and the extent of capillary tube formation was evaluated by measuring the total tube length per field.

[2] = test system: various cancer cells lines; experiment: Cytotoxicity assays in various cancer cell lines; format: cell-based
[3] = test system: human endometrial stromal cells (HESC); experiment: Decidualization assay, phalloidin staining of actin cytoskeleton; format: cell-based
Method: Decidualization studies: The above compounds were investigated originally for the treatment of endometriosis. The compounds were tested in a decidualization assay using human endometrial stromal fibroblast (HESC) cells. In preparation for the possibility of embryonic attachment, the stromal cells in the endometrium undergo extensive waves of proliferation, remodeling, and terminal differentiation that transforms the endometrium into an endocrine gland, called decidua. This transformation is called decidualization and it is under the control by ovarian hormones.
The level of apoptosis increases from the proliferative phase through menstrual cycle and peaks at menses. […] However if the cells are subjected to conditions that induce decidualization, stromal cells will begin to differentiate instead of undergoing apoptosis.
Rationale of this assay is described above in mechanism of action studies section. Briefly, human stromal endometrial cells were plated in the presence and absence of progesterone and allow undergoing decidualization. The cells treated with test compounds of different concentrations and stained for actin cytocketal morphology using phalloidin staining and monitored under fluorescent microscope.

[4] = test system: Patient derived tumor (melanoma); experiment: Immunohistochemistry analysis of treated patient derived tumor; format: cell-based, human; settings: 10 nM and 1 uM for 5 days
Method: Patient derived tumor (melanoma) was treated with the compounds at 10 nM and 1 uM for 5 days in RPMI medium and harvested on day 6 using established protocol and immunohistochemistry was performed for different antibodies including p53, LIF, MDM2, pSTAT3, Ki67.

MCF-7 cells = experiment: P53 / MDM2 levels in MCF-7 cells; format: cell-based, human
U87-MU (Glioma cells) = experiment: Short term (72 h) cytotoxicity assay; format: cell-based; settings: Glioma cell
U251 (Glioma) = experiment: Short term (72 h) cytotoxicity assay; format: cell-based; settings: Homo sapiens, U-251; U251, 72 h
A549 (Lung cancer) = experiment: Short term (72 h) cytotoxicity assay; format: cell-based; settings: Homo sapiens, A549, 72 h
[5] = test system: unmodified MCF-7 human breast cancer cells; experiment: LIF specificity assay, cytotoxicity; format: cell-based; settings: MCF7
[6] = test system: LIF-overexpressing MCF-7 (MCF-7 LIF) human breast cancer cells; experiment: LIF specificity assay, cytotoxicity; format: cell-based; settings: for Fold Change: cytotoxicity MCF-7 vs. MCF-7 LIF (specificity towards LIF)
[7] = test system: FC 1295 and imPSCc-2 organoids; experiment: Pancreatic cancer / stellate cell line derived organoid system; format: cell-based, Murine; settings: as compared to control
Method: Most solid tumors have extensive stroma that not only facilitates the tumor progression but also impedes the delivery of the chemotherapeutic agents. Due to lack of any in-vitro system, presently it is difficult to evaluate any stroma-targeted therapies. Therefore, we developed an organoid system using labeled pancreatic cancer and stellate cell lines. Murine (FC 1295 and […]-2) cell lines cultured in different combinations were grown as an organoid system using matrigel. The organoids, starting day four were treated with either gemcitabine or EC359, a novel mifepristone derived steroidal cytotoxic agent that targets tumor stroma, or both in combination. qRT-PCR analysis of activated stroma signature genes was performed on the mRNA isolated from different treatment groups. H&E, immunohistochemistry, and western blot analysis were performed to further validate our findings. […] Our novel cell line derived organoid model can be utilized for fast, and inexpensive evaluation of stroma-targeted therapies.

C#CC(F)(F)[C@]1(O)CCC2C3CCC4=CC(=O)CCC4=C3C(c3ccc(C(C)=O)cc3)C[C@@]21C (stereo partly drawn) [EC332, 17α-(1,1-difluoro-2-propyn-1-yl)-17β-hydroxy-11β-[4-p-(acetyl)phenyl]estra-4,9-dien-3-one]
colonies formed (T47D cells): complete inhibition or no colonies were formed | tube formation [1]: complete abrogation of tube formation | cytotoxicity (IC50's) in cytotoxicity assays [2]: low nanomolar | actin cytoskeletal disruption (phalloidin staining) [3]: cytoskeletal disruption | apoptosis, p53, MDM2, LIF mediated STAT3 phosphorylation (immunohistochemistry) [4]: induce apoptosis and restore p53 by inhibiting MDM2 and LIF mediated STAT3 phosphorylation | P53 levels / MDM2 (MCF-7 cells): restore P53 levels by inhibiting MDM2

C#CC(F)(F)[C@]1(O)CCC2C3CCC4=CC(=O)CCC4=C3C(c3ccc(-n4ccnc4)cc3)C[C@@]21C (some centres unmarked) [EC351]
melting point: 175 to 178 °C

C#CC(F)(F)[C@]1(O)CCC2C3CCC4=CC(=O)CCC4=C3C(c3ccc(N(C)C)cc3)C[C@@]21C (stereo partly drawn) [EC352, 17α-(1,1-difluoro-2-propyn-1-yl)-17β-hydroxy-11β-[4-p-(dimethylamino)phenyl]estra-4,9-dien-3-one]
IC50 (U87-MU (Glioma cells)): 50 nM | IC50 (U251 (Glioma)): 40 nM | IC50 (A549 (Lung cancer)): 45 nM | IC50 [5]: > 10 µM | IC50 ([6]; Homo sapiens, MCF7, LIF-overexpressing MCF-7): > 10 µM | Fold Change [6]: 0

C#CC(F)(F)[C@]1(O)CCC2C3CCC4=CC(=O)CCC4=C3C(c3ccc(OC)cc3)C[C@@]21C (stereo partly drawn) [EC356, 17α-(1,1-difluoro-2-propyn-1-yl)-17β-hydroxy-11β-[4-p-(methoxy)phenyl]estra-4,9-dien-3-one]
Fold Change [6]: 2

C#CC(F)(F)[C@]1(O)CCC2C3CCC4=CC(=O)CCC4=C3C(c3ccc(C(C)(C)C)cc3)C[C@@]21C (stereo partly drawn) [EC357, 17α-(1,1-difluoro-2-propyn-1-yl)-17β-hydroxy-11β-[4-p-(t-butyl)phenyl]estra-4,9-dien-3-one]
melting point: 127 to 129 °C

C#CC(F)(F)[C@]1(O)CCC2C3CCC4=CC(=O)CCC4=C3C(c3ccc(C(=C)C)cc3)C[C@@]21C (stereo partly drawn) [EC358, 17α-(1,1-difluoro-2-propyn-1-yl)-17β-hydroxy-11β-[4-p-(1-methylethenyl)phenyl]estra-4,9-dien-3-one]
Fold Change [6]: 2

C#CC(F)(F)[C@]1(O)CCC2C3CCC4=CC(=O)CCC4=C3C(c3ccc(C4CCCCC4)cc3)C[C@@]21C (stereo partly drawn) [EC360, 17α-(1,1-difluoro-2-propyn-1-yl)-17β-hydroxy-11β-[4-p-(cyclohexyl)phenyl]estra-4,9-dien-3-one]
Fold Change [6]: 2

C#CC(F)(F)[C@]1(O)CCC2C3CCC4=CC(=O)CCC4=C3C(c3ccc(S(=O)(=O)C4CC4)cc3)C[C@@]21C (stereo partly drawn) [EC361, 17α-(1,1-difluoro-2-propyn-1-yl)-17β-hydroxy-11β-[4-p-(cyclopropylsulfonyl)phenyl]estra-4,9-dien-3-one]
Fold Change [6]: 20

C#CC(F)(F)[C@]1(O)CCC2C3CCC4=CC(=O)CCC4=C3C(c3ccc(CCCCCCC)cc3)C[C@@]21C (stereo partly drawn) [EC362, 17α-(1,1-difluoro-2-propyn-1-yl)-17β-hydroxy-11β-[4-p-(n-heptyl)phenyl]estra-4,9-dien-3-one]
Fold Change [6]: 2

Nc1ccn([C@@H]2O[C@H](CO)[C@@H](O)C2(F)F)c(=O)n1 [Gemcitabine, reference compound]
relative reduction in GFP fluorescence [7]: 98%
